From patent publication US20240239861A1, “GLUCAGON-RECEPTOR SELECTIVE POLYPEPTIDES AND METHODS OF USE THEREOF” (i2O Therapeutics, Inc., priority 2016, published 2024)
Entries after “also recorded” stand apart in the source; their conditions may differ. Read-outs that look alike come from different tables or passages of the source. Where a SMILES comes first, the peptide text is derived from it. Bridges are numbered along the chain shown (N, C = ends).

Columns and labels:
[1] = Stability in water or saline at 37° C. and room temperature, 30 days, LC/MS and HPLC purity; assay type: physicochemical
Description: Samples were withdrawn at a regular interval for 30 days and analyzed by LC/MS and HPLC for determination of purity and mass of the degradation product.

human GCGR = human GCGR (Homo sapiens, UniProt P47871); experiment: Peptide-receptor mediated cAMP accumulation (LANCE Ultra cAMP) in CHO-K1 cells transfected with human GCGR; assay type: cell-based; conditions: for hGCGR pEC50 (cAMP mean (n = 3): 11 point curve starting at 1 nM): Table 3
human GCGR, sequence (P47871 26-477): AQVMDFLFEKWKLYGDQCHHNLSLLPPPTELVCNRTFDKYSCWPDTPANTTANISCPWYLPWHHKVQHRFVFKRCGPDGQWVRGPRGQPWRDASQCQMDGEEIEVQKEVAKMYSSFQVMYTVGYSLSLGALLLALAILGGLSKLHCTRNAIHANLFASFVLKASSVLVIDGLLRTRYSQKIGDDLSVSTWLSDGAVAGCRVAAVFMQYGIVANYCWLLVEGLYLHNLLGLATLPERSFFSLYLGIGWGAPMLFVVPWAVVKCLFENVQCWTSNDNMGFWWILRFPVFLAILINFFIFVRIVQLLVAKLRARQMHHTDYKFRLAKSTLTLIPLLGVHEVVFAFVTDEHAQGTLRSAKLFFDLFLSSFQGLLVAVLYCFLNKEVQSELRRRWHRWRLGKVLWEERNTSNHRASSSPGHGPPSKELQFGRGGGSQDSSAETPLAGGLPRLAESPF

human GLP-1R = human GLP-1R (Homo sapiens, UniProt P43220); experiment: Peptide-receptor mediated cAMP accumulation (LANCE Ultra cAMP) in CHO-K1 cells transfected with human GLP-1R; assay type: cell-based
human GLP-1R, sequence (P43220 24-463): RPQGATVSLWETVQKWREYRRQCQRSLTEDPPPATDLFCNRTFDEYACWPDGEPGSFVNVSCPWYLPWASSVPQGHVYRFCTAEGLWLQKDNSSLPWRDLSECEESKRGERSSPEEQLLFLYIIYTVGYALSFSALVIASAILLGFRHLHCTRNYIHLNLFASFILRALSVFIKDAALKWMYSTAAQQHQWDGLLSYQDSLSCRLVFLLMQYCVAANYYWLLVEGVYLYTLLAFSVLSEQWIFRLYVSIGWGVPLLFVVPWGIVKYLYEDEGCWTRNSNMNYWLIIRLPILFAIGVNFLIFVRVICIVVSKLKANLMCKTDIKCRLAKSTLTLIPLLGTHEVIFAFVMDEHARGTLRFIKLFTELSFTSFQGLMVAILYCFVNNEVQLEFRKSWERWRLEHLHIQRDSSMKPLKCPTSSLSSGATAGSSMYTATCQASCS

[2] = Body weight change in DIO Long Evans rats after 13 days continuous dosing by osmotic pump; conditions: for weight loss compared to vehicle control after 13 days: DIO LE rats, single agent; for ED50 of weight loss: DIO rats, 13 days infusion, fits sharing vehicle response and common maximum (FIG. 9); for common maximal weight loss response: over 13 days, fits constrained to share it (FIG. 9)
Description: Rats were 15-17 weeks old at the start of the study. The rats were housed 1 per cage and given ad libitum access to high fat diet (Harlan TD.95217, 4.3 kcal/g) and water, maintained on a 12 hr light/dark cycle from 5:00 AM to 5:00 PM at 21° C. and 50% relative humidity and allowed to acclimate for at least 10 days prior to the surgeries. Baseline fat mass and non-fat mass measurements were taken 3 days before the start of peptide infusion using a QMR instrument (Echo Medical Systems, Houston, TX). Body weight measurements were taken 2 times/week starting three days before the surgery. Rats were randomized according to their percent body fat mass and/or body weight into the various treatment groups (n=4-6 rats/group). […] On the day of surgery, rats were anesthetized under isoflurane and the dorsal skin surface was shaved and cleansed. Rats were injected SC with Flunexin (2.5 mg/kg). A 1-2 cm surgical incision was made between the scapulae. Using blunt dissection, a 2-3 cm subcutaneous tunnel was created into which the sterile, filled, mini-osmotic pump was introduced. The skin opening was closed with a skin staple. Each rat was implanted with either one or two osmotic pumps containing vehicle or peptide according to their treatment group. All the data are presented as mean±SEM. The data were analyzed in Excel and/or Prism (GraphPad Software, Inc., La Jolla, CA) using one-way ANOVA to compare each group to the appropriate control group.

[3] = 3-hour intravenous infusion pharmacokinetics, peptide clearance (CL); conditions: male, rat, in vivo
[4] = Solubility in water or saline at room temperature, visual inspection; assay type: physicochemical
Description: Samples were visually inspected for clarity of the sample, any appearance of turbidity or haziness.

[5] = Clearance at intravenous infusion rate of 10 mcg/kg/hr
[6] = Steady state plasma concentrations of glucagon analogs given subcutaneously by osmotic minipump; assay type: in vivo, rat
[7] = rat, in vivo
in vivo = conditions: rat, iv
[8] = Intravenous bolus injection pharmacokinetics, clearance (CL), cyclic peptide glucagon analogs; conditions: rat, in vivo; male Wistar Han rats, single iv bolus 0.1 mg/kg; read-out: IV Bolus Clearance Kidney (CL)
Description: Peptides were administered as a single intravenous bolus dose to non-fasted male Wistar Han rats (n=3 per group) via jugular vein cannula. Compounds were formulated as solutions in either sterile saline, acidified saline (pH 2.0 or 4.5), or 5% DMSO in water and administered at a volume of 1.5 mL/kg and a final dose of 0.1 mg/kg. […] Plasma was prepared by centrifugation and stored at −80° C. until analysis.
Protein Precipitation: All 96-well plates were coated with a blocking agent to mitigate non-specific binding of peptides. Plasma samples (75 uL) were added to a 96-well plate containing 200 uL of 2:1 ethanol:acetonitrile containing 0.1% TFA and mixed well via aspiration. Plates were capped, vortex-mixed and centrifuged. Supernatants (215 uL) were transferred to a clean 96-well plate, evaporated to dryness under nitrogen flow and then reconstituted in 75 μL of 20% acetonitrile in water containing 0.10% formic acid.
Solid-Phase Extraction: Samples were diluted 3-fold with 5% NH4OH (aq) and loaded onto an Oasis MAX microElution plate (Waters Corp, Milford, MA) that had been pre-conditioned with 200 uL each of methanol and 5% NH4OH (aq). […]
All calibration standards were prepared in control rat plasma containing K2EDTA and protease inhibitor cocktail. […] Peptides were quantified my monitoring one or more product ions produced from a multiply charged parent ion.

[9] = rat, in vivo, iv
Description: Animals were anesthetized with halothane during catheterization of right saphenous vein (for peptide infusions) and right femoral artery (for blood sampling and monitoring of arterial pressure). Colonic temperature was measured and controlled. […] Arterial samples were collected every 30 min into heparinized Natelson capillaries, the plasma separated on a bench-top centrifuge and then frozen at −20° C. until assay.

[10] = Table 3, % printed only in cells of A1-A6
[11] = hGLP1 pEC50 (cAMP mean (n = 3): 11 point curve starting at 1 nM, Table 3)
[12] = hGLP1 pEC50 (cAMP) mean (n = 9): 11 point curve starting at 500 uM, Table 2A
[13] = Table 3, room temperature, read-out: Solubility in water

Row | Compound | Stability 1 mg/ml in water at 37 degC [1, 10] [%] | EC50 (human GCGR) [nM] | hGCGR pEC50 (cAMP mean (n = 3): 11 point curve starting at 1 nM) (human GCGR) | EC50 (human GLP-1R; [11]) [nM] | EC50 (human GLP-1R; [12]) [nM] | ED50 of weight loss [2] [µg/kg/day] | common maximal weight loss response [2] [%] | CL (FIGURE 2B) [mL/min/kg] | clearance [3] [mL/min/kg] | solubility [4, 13] [mg/mL] | clearance [8] [mL/min/kg] | also measured
1 | CC(C)C[C@H](NC(=O)[C@H](Cc1ccc(O)cc1)NC(=O)[C@H](CCCCN)NC(=O)[C@H](CO)NC(=O)[C@H](Cc1ccc(O)cc1)NC(=O)[C@H](CC(=O)O)NC(=O)[C@H](CO)NC(=O)[C@@H](NC(=O)[C@H](Cc1ccccc1)NC(=O)[C@@H](NC(=O)CNC(=O)[C@H](Cc1c[nH]cn1)NC(=O)[C@H](CO)NC(=O)[C@@H](N)Cc1ccc(O)cc1)[C@@H](C)O)[C@@H](C)O)C(=O)N[C@@H](CC(=O)O)C(=O)NC(C)(C)C(=O)N[C@@H](CCCCN)C(=O)N[C@@H](CO)C(=O)N[C@@H](C)C(=O)N[C@@H](CCC(N)=O)C(=O)N[C@@H](CCC(=O)O)C(=O)N[C@@H](Cc1ccccc1)C(=O)N[C@H](C(=O)NC(C)(C)C(=O)N[C@@H](Cc1c[nH]c2ccccc12)C(=O)N[C@@H](CC(C)C)C(=O)N[C@@H](CCC(=O)O)C(=O)N[C@@H](CC(=O)O)C(=O)N[C@@H](CCC(=O)O)C(=O)N1CCC[C@H]1C(=O)N[C@@H](CO)C(=O)N[C@@H](CO)C(=O)NCC(=O)N[C@@H](C)C(=O)N1CCC[C@H]1C(=O)N1CCC[C@H]1C(=O)N1CCC[C@H]1C(=O)N[C@@H](CO)C(=O)O)C(C)C [Compound A2] | >84 | 0.002 | 11.7 | 3980 | 3980 | 271 | 27.2 | 12.3 ± 0.6 | 10.8 | > 200 | – | activation profile at the human glucagon receptor (GCGR) (human GCGR; FIG. 1A): nearly equipotent on GCGR; activation profile at the human GLP-1 receptor (GLP-1R) (human GLP-1R; FIG. 1B): inactive on GLP-1R; weight loss compared to vehicle control after 13 days ([2]; 0.01 mg/kg/day): 3.7%; weight loss compared to vehicle control after 13 days ([2]; 0.03 mg/kg/day): 3.9%; weight loss compared to vehicle control after 13 days ([2]; 0.1 mg/kg/day): 8.6%; weight loss compared to vehicle control after 13 days ([2]; 0.3 mg/kg/day): 23.7%; clearance compared with exenatide and glucagon ([5]; FIG. 7): less than that of exenatide and glucagon; mode of clearance ([5]; FIG. 7, Table 5 values close to GFR): cleared from plasma via glomerular filtration; CL ([5]; Table 5, intravenous infusion rate 10 mcg/kg/hr, rat): 11.3 mL/min/kg; clearance ([5]; rat, in vivo, iv, 10 mcg/kg/hr, CL mL/min/kg, Table 5, intravenous infusion rate 10 mcg/kg/hr): 10.8 mL/min/kg; mode of clearance ([6]; FIG. 6, steady state plasma concentration vs inulin/GFR): consistent with being via glomerular filtration; also recorded: cleared mainly by glomerular filtration; subcutaneous bioavailability ([6]; sc osmotic minipump, rat): high
2 | CC(C)C[C@H](NC(=O)[C@H](Cc1ccc(O)cc1)NC(=O)[C@H](CCCCN)NC(=O)[C@H](CO)NC(=O)[C@H](Cc1ccc(O)cc1)NC(=O)[C@H](CC(=O)O)NC(=O)[C@H](CO)NC(=O)[C@@H](NC(=O)[C@H](Cc1ccccc1)NC(=O)[C@@H](NC(=O)CNC(=O)[C@H](CCC(N)=O)NC(=O)[C@H](CO)NC(=O)[C@@H](N)Cc1ccc(O)cc1)[C@@H](C)O)[C@@H](C)O)C(=O)N[C@@H](CC(=O)O)C(=O)N[C@@H](C)C(=O)N[C@@H](C)C(=O)N[C@@H](CCCNC(=N)N)C(=O)N[C@@H](C)C(=O)N[C@@H](CCC(N)=O)C(=O)N[C@@H](CCC(=O)O)C(=O)N[C@@H](Cc1ccccc1)C(=O)N[C@H](C(=O)N[C@@H](CCCCN)C(=O)N[C@@H](Cc1c[nH]c2ccccc12)C(=O)N[C@@H](CC(C)C)C(=O)N[C@@H](CCC(=O)O)C(=O)N[C@@H](CC(=O)O)C(=O)N[C@@H](CCC(=O)O)C(=O)N1CCC[C@H]1C(=O)N[C@@H](CCCCN)C(=O)N[C@@H](CO)C(=O)N[C@@H](CCCCN)C(=O)N[C@@H](CO)C(=O)N1CCC[C@H]1C(=O)N1CCC[C@H]1C(=O)N1CCC[C@H]1C(=O)N[C@@H](CO)C(N)=O)C(C)C [Compound A3] (H-YSQGTFTSDYSKYLDAARAQEFVKWLEDEPKSKSPPPS-NH2; N-terminus assumed) | – | – | – | 200 | 200 | 535 | 27.2 | 12.5 ± 1.6 | – | – | – | Stability 1 mg/ml in water at 37 degC [1]: >64%; mode of clearance [7]: cleared from plasma via glomerular filtration; solubility ([4]; Solubility in water mg/ml): > 200 mg/mL; clearance (in vivo): 10.7 mL/min/kg
3 | CC[C@H](C)[C@H](NC(=O)[C@@H](NC(=O)[C@H](Cc1ccccc1)NC(=O)[C@H](CCC(=O)O)NC(=O)[C@H](CCC(N)=O)NC(=O)[C@H](C)NC(=O)[C@H](CCCNC(=N)N)NC(=O)[C@H](CCCCN)NC(=O)C(C)(C)NC(=O)[C@H](CC(=O)O)NC(=O)[C@H](CC(C)C)NC(=O)[C@H](Cc1ccc(O)cc1)NC(=O)[C@H](CCCCN)NC(=O)[C@H](CO)NC(=O)[C@H](Cc1ccc(O)cc1)NC(=O)[C@H](CC(=O)O)NC(=O)[C@H](CO)NC(=O)[C@@H](NC(=O)[C@H](Cc1ccccc1)NC(=O)[C@@H](NC(=O)CNC(=O)[C@H](Cc1c[nH]cn1)NC(=O)[C@H](CO)NC(=O)[C@@H](N)Cc1ccc(O)cc1)[C@@H](C)O)[C@@H](C)O)C(C)C)C(=O)N[C@@H](Cc1c[nH]c2ccccc12)C(=O)N[C@@H](CC(C)C)C(=O)N[C@@H](CCC(=O)O)C(=O)N[C@@H](CC(=O)O)C(=O)N[C@@H](CCC(=O)O)C(=O)N1CCC[C@H]1C(=O)N[C@@H](CO)C(=O)N[C@@H](CO)C(=O)NCC(=O)N[C@@H](C)C(=O)N1CCC[C@H]1C(=O)N1CCC[C@H]1C(=O)N1CCC[C@H]1C(=O)N[C@@H](CO)C(=O)O [Compound A4] | >81 | 0.00158 | 11.8 | > 10000 | > 10000 | – | – | 15.0 ± 0.7 | 12.6 | > 200 | – | –
4 | CC(C)C[C@H](NC(=O)[C@H](Cc1ccc(O)cc1)NC(=O)[C@H](CCCCN)NC(=O)[C@H](CO)NC(=O)[C@H](Cc1ccc(O)cc1)NC(=O)[C@H](CC(=O)O)NC(=O)[C@H](CO)NC(=O)[C@@H](NC(=O)[C@H](Cc1ccccc1)NC(=O)[C@@H](NC(=O)CNC(=O)[C@H](CCC(N)=O)NC(=O)[C@H](CO)NC(=O)[C@@H](N)Cc1ccc(O)cc1)[C@@H](C)O)[C@@H](C)O)C(=O)N[C@@H](CC(=O)O)C(=O)N[C@@H](CO)C(=O)N[C@H]1CCCCNC(=O)CC[C@@H](C(=O)N[C@@H](Cc2ccccc2)C(=O)N[C@H](C(=O)N[C@H]2CCCCNC(=O)CC[C@@H](C(=O)N[C@H](C(=O)O)[C@@H](C)O)NC(=O)[C@H](CC(=O)O)NC(=O)[C@H](CC(C)C)NC(=O)[C@H](Cc3c[nH]c4ccccc34)NC2=O)C(C)C)NC(=O)[C@H](CCC(N)=O)NC(=O)[C@H](C)NC(=O)[C@H](CCCNC(=N)N)NC1=O [Compound A104] (H-YSQGTFTSDYSKYLDSKRAQEFVKWLDET-OH; lactam 17-21, 24-28) | – | – | – | – | – | – | – | – | – | – | 80.7 ± 15.4 | –
5 | CC(C)C[C@H](NC(=O)[C@H](Cc1ccc(O)cc1)NC(=O)[C@H](CCCCN)NC(=O)[C@H](CO)NC(=O)[C@H](Cc1ccc(O)cc1)NC(=O)[C@H](CC(=O)O)NC(=O)[C@H](CO)NC(=O)[C@@H](NC(=O)[C@H](Cc1ccccc1)NC(=O)[C@@H](NC(=O)CNC(=O)[C@H](CCC(N)=O)NC(=O)[C@H](CO)NC(=O)[C@@H](N)Cc1ccc(O)cc1)[C@@H](C)O)[C@@H](C)O)C(=O)N[C@@H](CC(=O)O)C(=O)N[C@@H](CO)C(=O)N[C@H]1CCCCNC(=O)CC[C@@H](C(=O)N[C@@H](Cc2ccccc2)C(=O)N[C@H](C(=O)N[C@H]2CCCCNC(=O)CC[C@@H](C(=O)N[C@H](C(=O)O)[C@@H](C)O)NC(=O)[C@H](CCC(N)=O)NC(=O)[C@H](CC(C)C)NC(=O)[C@H](Cc3c[nH]c4ccccc34)NC2=O)C(C)C)NC(=O)[C@H](CCC(N)=O)NC(=O)[C@H](C)NC(=O)[C@H](CCCNC(=N)N)NC1=O [Compound A105] (H-YSQGTFTSDYSKYLDSKRAQEFVKWLQET-OH; lactam 17-21, 24-28) | – | – | – | – | – | – | – | – | – | – | 67 ± 7.3 | –
6 | GLP-1: glucagon-like peptide-1; infused as GLP-1-(7-36)amide in Example 13 | – | – | – | – | – | – | – | – | – | – | – | Plasma clearance rates [9]: 34±4 to 38±3
